In this data set the test system is CCRIS mutagenicity, Ames/micronucleus/aberration tests. As to the kind of experiment: CCRIS mutagenicity studies.
[1] abbreviates: Test System: AMES SALMONELLA TYPHIMURIUM, Strain/Indicator: TA98, Metabolic Activation: NONE, Method: STANDARD PLATE.
[2] abbreviates: Test System: AMES SALMONELLA TYPHIMURIUM, Strain/Indicator: TA98, Metabolic Activation: RAT, LIVER, S-9, AROCLOR 1254, Method: STANDARD PLATE.
[3] abbreviates: Test System: AMES SALMONELLA TYPHIMURIUM, Strain/Indicator: TA100, Metabolic Activation: NONE, Method: STANDARD PLATE.
[4] abbreviates: Test System: AMES SALMONELLA TYPHIMURIUM, Strain/Indicator: TA100, Metabolic Activation: RAT, LIVER, S-9, AROCLOR 1254, Method: STANDARD PLATE.
The mark [5] stands for this setting: Test System: AMES SALMONELLA TYPHIMURIUM, Strain/Indicator: TA1537, Metabolic Activation: RAT, LIVER, S-9, AROCLOR 1254, Method: STANDARD PLATE.
Setting [6] is: Test System: AMES SALMONELLA TYPHIMURIUM, Strain/Indicator: TA98, Metabolic Activation: HAMSTER, LIVER, S-9, AROCLOR 1254 (10%), Method: PREINCUBATION
Setting [7] is: Test System: AMES SALMONELLA TYPHIMURIUM, Strain/Indicator: TA98, Metabolic Activation: NONE, Method: PREINCUBATION
The mark [8] stands for this setting: Test System: AMES SALMONELLA TYPHIMURIUM, Strain/Indicator: TA98, Metabolic Activation: RAT, LIVER, S-9, AROCLOR 1254 (10%), Method: PREINCUBATION
Where [9] appears, read: Test System: AMES SALMONELLA TYPHIMURIUM, Strain/Indicator: TA100, Metabolic Activation: HAMSTER, LIVER, S-9, AROCLOR 1254 (10%), Method: PREINCUBATION
Where [10] appears, read: Test System: AMES SALMONELLA TYPHIMURIUM, Strain/Indicator: TA100, Metabolic Activation: NONE, Method: PREINCUBATION
Setting [11] is: Test System: AMES SALMONELLA TYPHIMURIUM, Strain/Indicator: TA100, Metabolic Activation: RAT, LIVER, S-9, AROCLOR 1254 (10%), Method: PREINCUBATION
[12] abbreviates: Test System: AMES SALMONELLA TYPHIMURIUM, Strain/Indicator: TA1535, Metabolic Activation: HAMSTER, LIVER, S-9, AROCLOR 1254 (10%), Method: PREINCUBATION
Setting [13] is: Test System: AMES SALMONELLA TYPHIMURIUM, Strain/Indicator: TA1535, Metabolic Activation: NONE, Method: PREINCUBATION
[14] abbreviates: Test System: AMES SALMONELLA TYPHIMURIUM, Strain/Indicator: TA1535, Metabolic Activation: RAT, LIVER, S-9, AROCLOR 1254 (10%), Method: PREINCUBATION
Setting [15] is: Test System: AMES SALMONELLA TYPHIMURIUM, Strain/Indicator: TA1537, Metabolic Activation: HAMSTER, LIVER, S-9, AROCLOR 1254 (10%), Method: PREINCUBATION
[16] abbreviates: Test System: AMES SALMONELLA TYPHIMURIUM, Strain/Indicator: TA1537, Metabolic Activation: NONE, Method: PREINCUBATION
[17] abbreviates: Test System: AMES SALMONELLA TYPHIMURIUM, Strain/Indicator: TA1537, Metabolic Activation: RAT, LIVER, S-9, AROCLOR 1254 (10%), Method: PREINCUBATION
The mark [18] stands for this setting: Test System: AMES SALMONELLA TYPHIMURIUM, Strain/Indicator: TA100, Metabolic Activation: RAT, LIVER, S-9, PCB, Method: PREINCUBATION

Active and inactive are the calls of the source. No rule for the calls is given here.

For `Oc1ccc(O)c2c(O)c3ccccc3c(O)c12`, the mutagenic call reads like this: under setting [1], “inactive; negative”; under setting [2], “inactive; negative”; under setting [3], “inactive; negative”; under setting [4], “inactive; negative”; (Test System: AMES SALMONELLA TYPHIMURIUM, Strain/Indicator: TA1535, Metabolic Activation: NONE, Method: STANDARD PLATE) “inactive; negative”; (Test System: AMES SALMONELLA TYPHIMURIUM, Strain/Indicator: TA1535, Metabolic Activation: RAT, LIVER, S-9, AROCLOR 1254, Method: STANDARD PLATE) “inactive; negative”. For the same molecule, the mutagenic call is, setting by setting: (Test System: AMES SALMONELLA TYPHIMURIUM, Strain/Indicator: TA1537, Metabolic Activation: NONE, Method: STANDARD PLATE) “active; positive”; under setting [5], “active; positive”; (Test System: AMES SALMONELLA TYPHIMURIUM, Strain/Indicator: TA1538, Metabolic Activation: RAT, LIVER, S-9, AROCLOR 1254, Method: STANDARD PLATE) “inactive; negative”.

Turning to `CC1C=Cc2ccc3ccc4ccccc4c3c21` (stereo unspecified), the mutagenic call under setting [4] was “inactive; negative”.

Turning to `N[C@@H](CCS/C(Cl)=C/Cl)C(=O)O`, the mutagenic call runs as follows: (Test System: AMES SALMONELLA TYPHIMURIUM, Strain/Indicator: TA2638, Metabolic Activation: NONE, Method: PREINCUBATION) “inactive; negative”; (Test System: AMES SALMONELLA TYPHIMURIUM, Strain/Indicator: TA2638, Metabolic Activation: RAT, KIDNEY, CYTOSOL, Method: PREINCUBATION) “active; positive”.

Turning to `CCNCC`, the mutagenic call was “inactive; negative” under setting [6]; “inactive; negative” under setting [7]; “inactive; negative” under setting [8]; “inactive; negative” under setting [9]; “inactive; negative” under setting [10]; “inactive; negative” under setting [11]. For the same molecule, the mutagenic call was “inactive; negative” under setting [12]; “inactive; negative” under setting [13]; “inactive; negative” under setting [14]; “inactive; negative” under setting [15]; “inactive; negative” under setting [16]; “inactive; negative” under setting [17].

For the molecule `C=C(C)C(=O)OC(C)C`, the mutagenic call was “inactive; negative” under setting [6]; “inactive; negative” under setting [7]; “inactive; negative” under setting [8]; “inactive; negative” under setting [9]; “inactive; negative” under setting [10]; “inactive; negative” under setting [11]. Further, the mutagenic call under setting [12] is “inactive; negative”; the mutagenic call under setting [13] was “inactive; negative”; the mutagenic call under setting [14] is “inactive; negative”; the mutagenic call under setting [15] is “inactive; negative”; the mutagenic call under setting [16] is “inactive; negative”; the mutagenic call under setting [17] was “inactive; negative”.

Turning to `CC(C)(C)c1cc(-c2ccccc2)ccc1N=O`, the mutagenic call is, setting by setting: under setting [1], “active; positive”; (Test System: AMES SALMONELLA TYPHIMURIUM, Strain/Indicator: TA98, Metabolic Activation: S-9, Method: STANDARD PLATE) “active; positive”; under setting [3], “active; positive”; (Test System: AMES SALMONELLA TYPHIMURIUM, Strain/Indicator: TA100, Metabolic Activation: S-9, Method: STANDARD PLATE) “active; positive”.

On to `CC(=O)c1c(O)cc(O)c2c1C(=O)c1cc(O)cc(O)c1C2=O`, for which the mutagenic call runs as follows: under setting [1], “inactive; negative”; under setting [2], “inactive; negative”; under setting [3], “inactive; negative”; under setting [4], “inactive; negative”; under setting [5], “inactive; negative”.

For `CC(C)(Br)C(=O)NCc1ccccc1`, the mutagenic call runs as follows: (Test System: AMES SALMONELLA TYPHIMURIUM, Strain/Indicator: TA100, Metabolic Activation: MOUSE, LIVER, S-9, AROCLOR 1254, Method: STANDARD PLATE) “inactive; negative”; under setting [3], “inactive; negative”.

For `CC(N)CCN` (stereo unspecified), the mutagenic call under setting [7] is “inactive; negative”; the mutagenic call (Test System: AMES SALMONELLA TYPHIMURIUM, Strain/Indicator: TA98, Metabolic Activation: RAT, LIVER, S-9, PCB, Method: PREINCUBATION) was “inactive; negative”; the mutagenic call under setting [10] is “inactive; negative”; the mutagenic call under setting [18] was “inactive; negative”.

Take `C[Si](C)(C)N=[N+]=[N-]`: the mutagenic call reads like this: under setting [10], “active; positive”; under setting [18], “active; positive”.

Turning to `COc1cc(O)c2c(=O)oc3cc(O)cc(C)c3c2c1`, the mutagenic call is, setting by setting: under setting [1], “inactive; negative”; (Test System: AMES SALMONELLA TYPHIMURIUM, Strain/Indicator: TA98, Metabolic Activation: RAT LIVER S-9, AROCLOR 1254, Method: STANDARD PLATE) “inactive; negative”; under setting [2], “inactive; negative”; under setting [3], “inactive; negative”; (Test System: AMES SALMONELLA TYPHIMURIUM, Strain/Indicator: TA100, Metabolic Activation: RAT LIVER S-9, AROCLOR 1254, Method: STANDARD PLATE) “inactive; negative”; under setting [4], “inactive; negative”. Moreover, the mutagenic call (Test System: Ames Salmonella typhimurium, Strain/Indicator: TA97, Metabolic Activation: None, Method: Standard plate) is “inactive; negative. nitrosation did not increase mutagenicity”; the mutagenic call (Test System: Ames Salmonella typhimurium, Strain/Indicator: TA97, Metabolic Activation: Rat, Liver, S-9, Aroclor 1254 (10%), Method: Standard plate) was “inactive; negative. nitrosation did not increase mutagenicity”; the mutagenic call (Test System: Ames Salmonella typhimurium, Strain/Indicator: TA102, Metabolic Activation: None, Method: Standard plate) was “inactive; negative. nitrosation did not increase mutagenicity”; the mutagenic call (Test System: Ames Salmonella typhimurium, Strain/Indicator: TA102, Metabolic Activation: Rat, Liver, S-9, Aroclor 1254 (10%), Method: Standard plate) is “inactive; negative. nitrosation did not increase mutagenicity”; the mutagenic call (Test System: Ames Salmonella typhimurium, Strain/Indicator: TA104, Metabolic Activation: None, Method: Standard plate) was “inactive; negative. nitrosation did not increase mutagenicity”; the mutagenic call (Test System: Ames Salmonella typhimurium, Strain/Indicator: TA104, Metabolic Activation: Rat, Liver, S-9, Aroclor 1254 (10%), Method: Standard plate) was “inactive; negative. nitrosation did not increase mutagenicity”. Further, the mutagenic call (Test System: E. COLI, Strain/Indicator: ND-160, Metabolic Activation: NONE, Method: STANDARD PLATE) is “active; positive”.

Source of the values: PubChem BioAssay AID1259407 (Chemical Carcinogenesis Research Information System (CCRIS), 2018).
